Measurements reported in publication PMC6917776, “Discovery of a chemical probe for PRDM9” (Nature Communications, 2019).

Legend:
Assay in all cases: CelltiterGlo viability cell assay
Type in all cases: cell-based
HCC1143 = details: up to 30 μM; days 3 and 6; matched control line
Method in brief: (§1)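 Cells were seeded in 96-well plates and exposed to compound over 0.01 μM to 30 μM. Viability was read by CelltiterGlo luminescence on day 3 or day 6 and normalized to DMSO control; N=3 biological replicates, ±SEM.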

MDA-MB-436 = details: up to 30 μM; days 3 and 6; matched control line
Method in brief: as §1

HCC1806 = details: up to 30 μM; days 3 and 6; Prdm9 expressing line
Method in brief: as §1

Measured: Effect on proliferation (in words)

COc1cc(OC)cc(-c2noc(N3CCN(C)C4(CCN(c5ccccc5)CC4)C3)n2)c1 [MRK-740-NC]
did not have any significant effect: all assays above
